Assay results reported in ChEMBL document CHEMBL5665443, “Enzyme Inhibitor Single Concentration assay results for EUbOPEN Chemogenomics Library” (2024).
Where a SMILES comes first, the peptide text is derived from it. Bridges are numbered along the chain shown (N, C = ends). [ ]: non-standard residue; d: D form. Orn = NCCC[C@H](N)C(=O)O; Mpa = O=C(O)CCS

Columns and labels:
Details in all cases: Hit No
[1] = target: N-glycosylase/DNA lyase (Homo sapiens) (UniProt O15527);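 further: OGG1 cleavage of a quenched duplex DNA oligonucleotide, coupled to APE1 for strand incision, read as fluorescence at 594 nm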
Sequence of N-glycosylase/DNA lyase (Homo sapiens) (O15527 whole entry): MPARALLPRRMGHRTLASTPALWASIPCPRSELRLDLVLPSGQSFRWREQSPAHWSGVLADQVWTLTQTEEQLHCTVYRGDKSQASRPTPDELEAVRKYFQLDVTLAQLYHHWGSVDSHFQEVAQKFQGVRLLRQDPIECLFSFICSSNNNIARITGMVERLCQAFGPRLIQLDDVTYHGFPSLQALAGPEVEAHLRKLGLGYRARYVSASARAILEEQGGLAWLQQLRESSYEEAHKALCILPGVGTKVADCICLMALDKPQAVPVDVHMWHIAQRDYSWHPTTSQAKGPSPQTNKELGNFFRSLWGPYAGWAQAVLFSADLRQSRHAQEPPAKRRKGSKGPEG
Description: Inhibition of OGG1 by quantifying inhibition of OGG1-mediated cleavage and dissociation of quenched duplex DNA oligonucleotides, measured as fluorescence at 594 nm. To generate a functional strand incision and increase turn-over this assay is coupled to APE1.

[2] = target: G/T mismatch-specific thymine DNA glycosylase (Homo sapiens) (UniProt Q13569);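 further: human TDG cleavage of quenched duplex DNA oligonucleotides coupled to APE1, strand release read as fluorescence at 594 nm, inhibition of TDG activity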
Sequence of G/T mismatch-specific thymine DNA glycosylase (Homo sapiens) (Q13569 whole entry): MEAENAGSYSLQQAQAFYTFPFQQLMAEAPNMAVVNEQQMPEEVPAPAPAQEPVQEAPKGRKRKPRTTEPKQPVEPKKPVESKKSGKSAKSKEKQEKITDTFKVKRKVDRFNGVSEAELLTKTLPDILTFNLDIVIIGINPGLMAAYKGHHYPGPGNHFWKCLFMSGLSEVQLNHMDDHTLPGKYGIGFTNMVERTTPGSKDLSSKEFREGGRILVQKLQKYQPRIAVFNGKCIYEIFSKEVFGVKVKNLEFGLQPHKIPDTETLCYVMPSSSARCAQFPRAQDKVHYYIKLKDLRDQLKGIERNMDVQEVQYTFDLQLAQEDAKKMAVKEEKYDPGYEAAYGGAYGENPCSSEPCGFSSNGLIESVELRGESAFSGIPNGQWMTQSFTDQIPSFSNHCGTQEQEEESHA
Description: Inhibition of TDG by quantifying inhibition of TDG-mediated cleavage and dissociation of quenched duplex DNA oligonucleotides, measured as fluorescence at 594 nm. To generate a functional strand incision and increase turn-over this assay is coupled to APE1.

[3] = target: Uracil-DNA glycosylase (Homo sapiens) (UniProt P13051);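 further: UNG excision on a quenched double-stranded DNA oligo probe, with APE1 added for strand incision and turnover, read as fluorescence at 594 nm as strands separate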
Sequence of Uracil-DNA glycosylase (Homo sapiens) (P13051 whole entry, the tested form may be a part): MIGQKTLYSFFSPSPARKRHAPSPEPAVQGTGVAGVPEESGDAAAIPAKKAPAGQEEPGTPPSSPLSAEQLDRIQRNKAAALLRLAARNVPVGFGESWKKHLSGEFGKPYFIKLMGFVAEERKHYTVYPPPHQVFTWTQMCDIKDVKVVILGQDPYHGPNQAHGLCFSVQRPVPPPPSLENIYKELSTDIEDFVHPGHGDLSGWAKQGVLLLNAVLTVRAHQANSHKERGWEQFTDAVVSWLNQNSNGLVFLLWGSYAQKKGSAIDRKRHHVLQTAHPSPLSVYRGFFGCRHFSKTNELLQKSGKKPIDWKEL
Description: Inhibition of UNG by quantifying inhibition of UNG-mediated cleavage and dissociation of quenched duplex DNA oligonucleotides, measured as fluorescence at 594 nm. To generate a functional strand incision and increase turn-over this assay is coupled to APE1.

[4] = target: Methyl-CpG-binding domain protein 4 (Homo sapiens) (UniProt O95243);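 further: MBD4 activity read as fluorescence at 594 nm from cleavage and release of a quenched duplex DNA oligonucleotide, with APE1 coupled to incise the strand and raise turnover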
Sequence of Methyl-CpG-binding domain protein 4 (Homo sapiens) (O95243 whole entry, the tested form may be a part): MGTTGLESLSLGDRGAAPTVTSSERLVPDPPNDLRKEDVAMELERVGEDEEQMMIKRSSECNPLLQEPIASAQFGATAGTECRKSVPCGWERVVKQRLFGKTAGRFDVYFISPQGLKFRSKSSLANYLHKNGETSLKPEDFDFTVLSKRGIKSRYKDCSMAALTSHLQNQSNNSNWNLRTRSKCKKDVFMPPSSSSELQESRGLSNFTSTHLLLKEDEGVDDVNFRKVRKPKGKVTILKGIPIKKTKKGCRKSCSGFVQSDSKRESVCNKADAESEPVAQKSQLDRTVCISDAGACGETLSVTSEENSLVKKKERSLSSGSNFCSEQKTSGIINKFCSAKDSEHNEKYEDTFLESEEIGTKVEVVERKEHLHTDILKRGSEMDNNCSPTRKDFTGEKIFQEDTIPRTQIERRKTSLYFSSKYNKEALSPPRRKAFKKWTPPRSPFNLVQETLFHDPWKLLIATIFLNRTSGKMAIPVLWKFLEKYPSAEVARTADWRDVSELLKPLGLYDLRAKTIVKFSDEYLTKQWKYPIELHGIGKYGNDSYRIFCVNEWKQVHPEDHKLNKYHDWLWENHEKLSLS
Description: Inhibition of MBD4 by quantifying inhibition of MBD4-mediated cleavage and dissociation of quenched duplex DNA oligonucleotides, measured as fluorescence at 594 nm. To generate a functional strand incision and increase turn-over this assay is coupled to APE1.

[5] = target: T1, Endonuclease 8-like 2 (Homo sapiens) (UniProt Q969S2);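 further: fluorescence at 594 nm reports NEIL2 cutting and release of a quenched double-stranded DNA oligo substrate, reduced signal read as inhibition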
T1 sequence (whole entry): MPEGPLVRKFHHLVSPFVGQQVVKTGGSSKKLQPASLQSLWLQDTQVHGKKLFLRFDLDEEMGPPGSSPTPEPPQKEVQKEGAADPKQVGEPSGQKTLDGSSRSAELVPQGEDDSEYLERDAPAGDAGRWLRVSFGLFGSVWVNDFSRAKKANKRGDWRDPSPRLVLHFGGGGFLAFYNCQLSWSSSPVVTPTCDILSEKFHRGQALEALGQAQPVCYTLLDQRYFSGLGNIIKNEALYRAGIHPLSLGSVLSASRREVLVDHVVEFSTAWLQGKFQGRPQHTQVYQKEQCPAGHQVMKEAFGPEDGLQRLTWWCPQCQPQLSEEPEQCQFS
Description: Inhibition of NEIL2 by quantifying inhibition of NEIL2-mediated cleavage and dissociation of quenched duplex DNA oligonucleotides, measured as fluorescence at 594 nm.

[6] = target: T2, Single-strand selective monofunctional uracil DNA glycosylase (Homo sapiens) (UniProt Q53HV7);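 further: enzymatic SMUG1 assay coupled with APE1, reading fluorescence at 594 nm released when a quenched double-stranded DNA oligonucleotide substrate is cleaved and separated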
T2 sequence (whole entry): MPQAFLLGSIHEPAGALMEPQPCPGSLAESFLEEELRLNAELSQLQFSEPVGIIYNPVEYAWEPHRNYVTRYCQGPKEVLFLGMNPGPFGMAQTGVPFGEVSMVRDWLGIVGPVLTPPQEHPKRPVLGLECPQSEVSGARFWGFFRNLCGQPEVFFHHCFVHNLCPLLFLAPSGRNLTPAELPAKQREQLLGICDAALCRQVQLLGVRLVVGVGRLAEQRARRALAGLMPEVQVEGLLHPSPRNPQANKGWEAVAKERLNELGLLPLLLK
Description: Inhibition of SMUG1 by quantifying inhibition of SMUG1-mediated cleavage and dissociation of quenched duplex DNA oligonucleotides, measured as fluorescence at 594 nm. To generate a functional strand incision and increase turn-over this assay is coupled to APE1.

[7] = target: Endonuclease 8-like 1 (Homo sapiens) (UniProt Q96FI4);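 further: fluorescence at 594 nm from quenched duplex DNA oligonucleotides released by NEIL1 cleavage and strand separation, reported as reduction of this enzyme activity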
Sequence of Endonuclease 8-like 1 (Homo sapiens) (Q96FI4 whole entry): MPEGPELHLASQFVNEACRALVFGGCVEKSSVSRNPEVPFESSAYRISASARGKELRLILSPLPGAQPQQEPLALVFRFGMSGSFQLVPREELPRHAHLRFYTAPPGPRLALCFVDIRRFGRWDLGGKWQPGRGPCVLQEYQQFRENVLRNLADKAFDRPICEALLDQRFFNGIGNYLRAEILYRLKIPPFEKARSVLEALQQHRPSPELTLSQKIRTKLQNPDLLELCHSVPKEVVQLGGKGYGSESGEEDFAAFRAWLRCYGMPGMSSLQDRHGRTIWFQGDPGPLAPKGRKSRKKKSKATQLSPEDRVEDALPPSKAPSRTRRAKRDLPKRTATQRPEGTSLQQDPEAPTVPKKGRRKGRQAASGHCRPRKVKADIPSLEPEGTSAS
Description: Inhibition of NEIL1 by quantifying inhibition of NEIL1-mediated cleavage and dissociation of quenched duplex DNA oligonucleotides, measured as fluorescence at 594 nm.

Row | Compound | inhibition ([1]; Compound Concentration 10.0 uM) [%] | inhibition ([2]; Compound Concentration 10.0 uM) [%] | inhibition ([3]; Compound Concentration 10.0 uM) [%] | inhibition ([4]; Compound Concentration 10.0 uM) [%] | inhibition ([5]; Compound Concentration 10.0 uM) [%] | inhibition ([6]; Compound Concentration 10.0 uM) [%] | inhibition ([7]; Compound Concentration 10.0 uM) [%] | inhibition ([1]; Compound Concentration 1.0 uM) [%] | inhibition ([2]; Compound Concentration 1.0 uM) [%] | inhibition ([3]; Compound Concentration 1.0 uM) [%] | inhibition ([4]; Compound Concentration 1.0 uM) [%] | inhibition ([5]; Compound Concentration 1.0 uM) [%] | inhibition ([7]; Compound Concentration 1.0 uM) [%] | inhibition ([6]; Compound Concentration 1.0 uM) [%]
1 | O=C(Nc1cnc(Oc2ccc(F)cc2)nc1)N1CCc2ncccc2[C@@H]1c1ccc(F)cc1 | -7.44 | 49.8 | -4.47 | 70.5 | -3.04 | 6.94 |  |  |  |  |  |  |  | 
2 | C[C@@H]1CN(Cc2ccc(F)cc2)CCN1C(=O)COc1ccc(Cl)cc1NC(N)=O |  | -7.21 |  | -0.315 | 1.76 | -3.18 | 8.25 |  |  |  |  |  |  | 
3 | Cn1c(-c2csc(C3CCN(CC4=NC5N=CC=CC5N4)CC3)n2)nc2ccccc21 (stereo not drawn) | -1.15 | 20.6 |  | -3.01 | -5.34 |  | -1.5 |  |  |  |  |  |  | 
4 | N#Cc1ccc2[nH]cc(CCCCN3CCN(c4ccc5oc(C(N)=O)cc5c4)CC3)c2c1 | -2.53 | -5.72 | -7.29 |  |  | 10.3 | 14.2 |  |  |  |  |  |  | 
5 | COc1ccc2cc(OCC3(C(=O)O)CN(C(=O)c4ccc(F)cc4)C3)ccc2c1 |  |  |  |  |  |  |  | -4.88 | 50.2 | -0.296 | 76.6 | -2.53 | 0.467 | 4.5
6 | Clc1ccc(-c2nc3sccn3c2/C=N/OCc2ccc(Cl)c(Cl)c2)cc1 | 1.07 | 76.8 | -2.04 | 15.6 | 2.57 | 12 | 1.22 |  |  |  |  |  |  | 
7 | CC(=O)C1=C(C)N(c2cccc(C(F)(F)F)c2)C(=O)N[C@@H]1c1ccc(C#N)nc1 | -1.15 | 45.6 | 2.25 | 51.4 | 3.85 | -3.19 |  |  |  |  |  |  |  | 
8 | CCOc1ccc(C[C@H]2NC(=O)CCSSC[C@@H](C(=O)N3CCC[C@H]3C(=O)N[C@@H](CCCN)C(=O)NCC(N)=O)NC(=O)[C@H](CC(N)=O)NC(=O)[C@H]([C@@H](C)O)NC(=O)[C@H]([C@@H](C)CC)NC2=O)cc1 ([Mpa][dY](Et)ITNCP[Orn]G-NH2; disulfide 1-6) |  | -5.89 | -8.02 |  | 9 | -2.21 | 4.99 |  |  |  |  |  |  | 
9 | O=C(Cc1ccc(Cl)c(Cl)c1)N1CCCC[C@H]1CN1CCCC1 | 2.1 |  | -9.61 |  | -2.48 | -3.13 | -3.91 |  |  |  |  |  |  | 
10 | Cc1ccc(NC(=O)Nc2cc(C(F)(F)F)ccc2F)cc1Nc1ccc2c(c1)NC(=O)/C2=C\c1ccc[nH]1 |  |  |  |  |  |  |  |  | 24.1 | -3.3 | -5.4 |  | -7.79 | 
11 | CCCCCCCCCCCCCCCCOC[C@H](COP(=O)([O-])OCC[N+](C)(C)C)OC(C)=O | 31.6 |  | -5.53 |  | -9.72 |  | -4.5 |  |  |  |  |  |  | 
12 | N#Cc1cccc(C(=O)Nc2cc(-c3ccccc3)nn2-c2ccccc2)c1 | -5.93 | -2.1 |  |  | 0.764 | -0.276 | -1.98 |  |  |  |  |  |  | 
13 | Cc1ccc(-c2ccc3c(ccc4sc5c(c43)NCC(C)NC5=O)n2)cn1 (stereo not drawn) | -7.16 | 25.8 |  |  |  | 6.89 | -2.5 |  |  |  |  |  |  | 
14 | CCOc1ccn(-c2ccc(F)cc2)c(=O)c1C(=O)Nc1ccc(Oc2ccnc(N)c2Cl)c(F)c1 | -7.89 | 59.2 | 6.57 |  |  | 30.4 | 6.08 |  |  |  |  |  |  | 
15 | O=C(c1ccc(F)c(F)c1Nc1ccc(I)cc1F)N1CC(O)([C@@H]2CCCCN2)C1 |  | 45 | 7.28 | 21.9 |  | 13.1 |  |  |  |  |  |  |  | 
16 | Clc1ccc(CCCOCCCN2CCCCC2)cc1 |  | 8.64 | -8.48 |  | -5.97 | -0.857 | -3.47 |  |  |  |  |  |  | 
17 | Cc1nc(-c2ccc(-c3ccc(C(=O)N4CCc5cc6c(cc54)C4(CCN(C)CC4)CO6)cc3)c(C)c2)no1 |  | -5.26 |  | 2.3 | -3.48 |  | -7.62 |  |  |  |  |  |  | 
18 | CCn1c(CNC(=O)c2nc(Cl)cnc2N)[n+](CC)c2ccc(C(=O)N(C)CCN(C)C)cc21 | 14.2 | 96.8 | 2.92 | 53.4 |  | 12.7 | -5.14 |  |  |  |  |  |  | 
19 | Nc1ccc(C(=O)Nc2cccc(-c3nc(N4CCOCC4)c4oc5ncccc5c4n3)c2)cn1 | 23 | 7.37 | 2.33 | -6.46 |  | 9.56 | -5.94 |  |  |  |  |  |  | 
